Test results reported in patent US11339177B2, “Heteroaryl compounds as inhibitors of necrosis, composition and method using the same” (ACCRO BIOSCIENCE INC., priority 2017, dated 2022).

system: HT29 cells; experiment: Necroptosis assay in HT29 cells (TNF-α, Smac mimetic, z-VAD; cell viability); assay type: cell-based; conditions: Homo sapiens, HT-29; TNF-α (40 ng/mL), Smacmimetic (100 nM), z-VAD (20 μM), 48 hours
Procedure: Human colon cancer HT29 cells were used in a necroptosis assay. For this assay, HT29 cells were added to 96-well plates and then were pre-treated with 10 μM of the test compound for one hour. Then the cells were treated with TNF-α (40 ng/mL), Smacmimetic (100 nM) and z-VAD (20 μM) for 48 hours, and the viability of cells was quantified. DMSO pretreatment group was used as negative controls, Nec-1 pretreatment group was used as positive controls.
In Table 2, (1) “ND” indicates “not detected;” (2) Explanation for inhibition %: Taking Compound B14 as an example, its inhibition % was 30% (50 nM). It means that the when Compound B14 at a concentration of 50 nM was used in the HT29 Cell Assay, the necrosis of cells were inhibited at 30%.

| SMILES | IC50 |
| --- | --- |
| Nc1nc2ccc(-c3cnc4c(c3)N(C(=O)OC3CCCCC3)CCO4)cc2s1 [Compound B1] | 11 nM |
| CC(=O)Nc1nc2ccc(-c3cnc4c(c3)N(C(=O)OC3CCCCC3)CCO4)cc2s1 [Compound B2, Cyclohexyl-7-(2-acetamidobenzo[d]thiazol-6-yl)-2,3-dihydro-1H-pyrido[2,3-b][1,4]oxazine-1-carboxylate] | 2 nM |
| Nc1nc2cc(-c3cnc4c(c3)N(C(=O)OC3CCCCC3)CCO4)ccn2n1 [Compound B4] | 90 nM |
| CC(=O)Nc1nc2cc(-c3cnc4c(c3)N(C(=O)OC3CCCCC3)CCO4)ccn2n1 [Compound B5] | 42 nM |
| Nc1nc2ccc(-c3cnc4c(c3)N(C(=O)OC3CCCCC3)CCO4)cn2n1 [Compound B6] | 90 nM |
| CC(C)(C)OC(=O)Nc1cn2cc(-c3cnc4c(c3)N(C(=O)OC3CCCCC3)CCO4)ccc2n1 [Compound B10] | 5 nM |
| CC(=O)Nc1cn2nc(-c3cnc4c(c3)N(C(=O)OC3CCCCC3)CCO4)ccc2n1 [Compound B12] | 11 nM |
| CC(C)(C)OC(=O)Nc1nc2ccc(-c3cnc4c(c3)N(C(=O)OC3CCOCC3)CCO4)cc2s1 [Compound B17, tetrahydro-2H-pyran-4-yl-7-(2-((tert-butoxycarbonyl)amino)benzo[d]thiazol-6-yl)-2,3-dihydro-1H-pyrido[2,3-b][1,4]oxazine-1-carboxylate] | 26 nM |
| CC(=O)Nc1nc2ccc(-c3cnc4c(c3)N(C(=O)OC3CCCCCC3)CCO4)cc2s1 [Compound B26] | 3.2 nM |
| CC(=O)Nc1nc2ccc(-c3cnc4c(c3)N(C(=O)OC3COCCOC3)CCO4)cc2s1 [Compound B27] | 132 nM |
| CC(=O)Nc1nc2ccc(-c3cnc4c(c3)N(C(=O)NC3CCCCC3)CCO4)cc2s1 [Compound B28] | 39 nM |
| CC(=O)Nc1nc2ccc(-c3cnc4c(c3)N(C(=O)CC3CCCCC3)CCO4)cc2s1 [Compound B29] | 27 nM |
| CC(=O)Nc1nc2ccc(-c3cnc4c(c3)N(C(=O)CC(C)(C)C)CCO4)cc2s1 [Compound B30] | 186 nM |
| CC(=O)Nc1nc2ccc(-c3cnc4c(c3)N(C(=O)OC3CCCCC3)CCO4)nc2s1 [Compound B31] | 8.5 nM |
| O=C(Nc1nc2ccc(-c3cnc4c(c3)N(C(=O)OC3CCCCC3)CCO4)nc2s1)C1CC1 [Compound B32] | 0.9 nM |
| O=C1CCn2c(nc3ccc(-c4cnc5c(c4)N(C(=O)OC4CCCCC4)CCO5)cc32)N1 [Compound B33, Cyclohexyl7-(2-oxo-1,2,3,4-tetrahydrobenzo[4,5]imidazo[1,2-a]pyrimidin-7-yl)-2,3-dihydro-1H-pyrido[2,3-b][1,4]oxazine-1-carboxylate] | 15 nM |
| O=C1Cn2c(nc3ccc(-c4cnc5c(c4)N(C(=O)OC4CCCCC4)CCO5)cc32)N1 [Compound B34] | 2300 nM |
| CC(=O)Nc1nc2ccc(-c3cnc4c(c3)N(C(=O)CC3CCOCC3)CCO4)cc2s1 [Compound B36] | 530 nM |
| CC(=O)Nc1nc2ccc(-c3cnc4c(c3)N(C(=O)OC3CCCCC3)CC(=O)N4)cc2s1 [Compound B39, Cyclohexyl-7-(2-acetamidobenzo[d]thiazol-6-yl)-3-oxo-3,4-dihydropyrido[2,3-b]pyrazine-1(2H)-carboxylate] | 2700 nM |
| CC(=O)Nc1nc2ccc(-c3cnc4c(c3)N(C(=O)OC3CCCCC3)CCN4)cc2s1 [Compound B40, Cyclohexyl-7-(2-acetamidobenzo[d]thiazol-6-yl)-3,4-dihydropyrido[2,3-b]pyrazine-1(2H)-carboxylate] | 24 nM |
| CC(=O)Nc1nc2ccc(-c3cnc4c(c3)N(C(=O)OC3CCOCC3)CCN4)cc2s1 [Compound B41] | 110 nM |
| O=C(Nc1nc2ccc(-c3cnc4c(c3)N(C(=O)OC3CCOCC3)CCN4)cc2s1)C1CC1 [Compound B42] | 38 nM |
| CC(=O)Nc1nc2ccc(-c3cnc4c(c3)N(C(=O)OC3CCCCC3)CCN4C)cc2s1 [Compound B43, cyclohexyl7-(2-acetamidobenzo[d]thiazol-6-yl)-4-methyl-3,4-dihydropyrido[2,3-b]pyrazine-1(2H)-carboxylate] | 13 nM |
| CC(=O)Nc1nc2ccc(-c3cnc4c(c3)N(C(=O)OC3CCOCC3)CCN4C)cc2s1 [Compound B44] | 95 nM |
| CN1CCN(C(=O)OC2CCOCC2)c2cc(-c3ccc4nc(NC(=O)C5CC5)sc4c3)cnc21 [Compound B45] | 18 nM |
| CCN1CCN(C(=O)OC2CCCCC2)c2cc(-c3ccc4nc(NC(C)=O)sc4c3)cnc21 [Compound B46] | 70 nM |

| SMILES | IC50 |
| --- | --- |
| CC(=O)Nc1nc2ccc(-c3cnc4c(c3)N(C(=O)OC3CCCCC3)CCN4C3CC3)cc2s1 [Compound B47] | 157 nM |
| CC(=O)Nc1nc2ccc(-c3cnc4c(c3)N(C(=O)OC3CCCCC3)CCC4)cc2s1 [Compound B48, cyclohexyl-7-(2-acetamidobenzo[d]thiazol-6-yl)-3,4-dihydro-1,5-naphthyridine-1(2H)-carboxylate] | 2.4 nM |
| CC(=O)Nc1nc2ccc(-c3cnc4c(c3)N(C(=O)OC3CCOCC3)CCC4)cc2s1 [Compound B49] | 11.4 nM |
| O=C(Nc1nc2ccc(-c3cnc4c(c3)N(C(=O)OC3CCOCC3)CCC4)cc2s1)C1CC1 [Compound B50, tetrahydro-2H-pyran-4-yl-7-(2-(cyclopropanecarboxamido)benzo[d]thiazol-6-yl)-3,4-dihydro-1,5-naphthyridine-1(2H)-carboxylate] | 1.5 nM |
| O=C(Nc1nc2ccc(-c3cnc4c(c3)N(C(=O)OC3CCOCC3)CCC4)nc2s1)C1CC1 [Compound B51] | 7.2 nM |
| CC(=O)Nc1nc2ccc(-c3cnc4c(c3)N(C(=O)OC3CCCCC3)CC4)cc2s1 [Compound B52] | 5 nM |
| CC(=O)Nc1nc2ccc(-c3cnc4c(c3)N(C(=O)OC3CCOCC3)CC4)cc2s1 [Compound B53, tetrahydro-2H-pyran-4-yl6-(2-acetamidobenzo[d]thiazol-6-yl)-2,3-dihydro-1H-pyrrolo[3,2-b]pyridine-1-carboxylate] | 4.7 nM |
| O=C(Nc1nc2ccc(-c3cnc4c(c3)N(C(=O)OC3CCOCC3)CC4)cc2s1)C1CC1 [Compound B54] | 2 nM |
| CC(=O)Nc1cn2cc(-c3cnc4c(c3)N(C(=O)OC3CCOCC3)CC4)ccc2n1 [Compound B55] | 49 nM |
| O=C(Nc1cn2cc(-c3cnc4c(c3)N(C(=O)OC3CCOCC3)CC4)ccc2n1)C1CC1 [Compound B56] | 4.6 nM |
| O=C(Nc1cn2nc(-c3cnc4c(c3)N(C(=O)OC3CCOCC3)CC4)ccc2n1)C1CC1 [Compound B58] | 17 nM |
| O=C(Nc1nc2ccc(-c3cnc4c(c3)N(C(=O)OC3CCOCC3)CC4)nc2s1)C1CC1 [Compound B59, tetrahydro-2H-pyran-4-yl6-(2-(cyclopropanecarboxamido)thiazolo[5,4-b]pyridin-5-yl)-2,3-dihydro-1H-pyrrolo[3,2-b]pyridine-1-carboxylate] | 7 nM |
| CC(=O)Nc1nc2ccc(-c3cnc4c(c3)N(C(=O)CC3CCOCC3)CC4)cc2s1 [Compound B61] | 39 nM |
| O=C(Nc1nc2ccc(-c3cnc4c(c3)N(C(=O)CC3CCOCC3)CC4)cc2s1)C1CC1 [Compound B62, N-(6-(1-(2-(tetrahydro-2H-pyran-4-yl)acetyl)-2,3-dihydro-1H-pyrrolo[3,2-b]pyridin-6-yl)benzo[d]thiazol-2-yl)cyclopropanecarboxamide] | 1.9 nM |
| O=C(Nc1cn2cc(-c3cnc4c(c3)N(C(=O)CC3CCOCC3)CC4)ccc2n1)C1CC1 [Compound B64] | 53 nM |
| O=C(Nc1nc2ccc(-c3cnc4c(c3)N(C(=O)OC3CCNCC3)CC4)cc2s1)C1CC1 [Compound B67, Piperidin-4-yl-6-(2-(cyclopropanecarboxamido)benzo[d]thiazol-6-yl)-2,3-dihydro-1H-pyrrolo[3,2-b]pyridine-1-carboxylate] | 300 nM |
| CNC(=O)Nc1nc2ccc(-c3cnc4c(c3)N(C(=O)OC3CCOCC3)CC4)nc2s1 [Compound B71] | 33.4 nM |
| CNC(=O)Nc1cn2cc(-c3cnc4c(c3)N(C(=O)OC3CCOCC3)CC4)ccc2n1 [Compound B72] | 48.1 nM |
| CNC(=O)Nc1nc2ccc(-c3cnc4c(c3)N(C(=O)OCC3CC3)CC4)cc2s1 [Compound B73] | 1.8 nM |
| CNC(=O)Nc1nc2ccc(-c3cnc4c(c3)N(C(=O)OCC3CC3)CC4)nc2s1 [Compound B74] | 23 nM |
| CNC(=O)Nc1cn2cc(-c3cnc4c(c3)N(C(=O)OCC3CC3)CC4)ccc2n1 [Compound B75] | 19 nM |
| O=C(Nc1nc2ccc(-c3cnc4c(c3)N(C(=O)OCC3CC3)CC4)nc2s1)C1CC1 [Compound B76] | 2.4 nM |
| O=C(Nc1cn2cc(-c3cnc4c(c3)N(C(=O)OCC3CC3)CC4)ccc2n1)C1CC1 [Compound B77] | 1.7 nM |
| O=C(Nc1nc2ccc(-c3cnc4c(c3)N(C(=O)OC3COC3)CC4)cc2s1)C1CC1 [Compound B78, Oxetan-3-yl-6-(2-(cyclopropanecarboxamido)benzo[d]thiazol-6-yl)-2,3-dihydro-1H-pyrrolo[3,2-b]pyridine-1-carboxylate] | 6.7 nM |
| CNCC(C)OC(=O)N1CCc2ncc(-c3ccc4nc(NC(=O)C5CC5)sc4c3)cc21 (centres unmarked) [Compound B79] | 16 nM |
| CC(=O)Nc1ccc2cc(-c3cnc4c(c3)N(C(=O)OC3CCCCC3)CCO4)ccc2n1 [Compound B80, Cyclohexyl7-(2-acetamidoquinolin-6-yl)-2,3-dihydro-1H-pyrido[2,3-b][1,4]oxazine-1-carboxylate] | 1000 nM |

system: L929 cells; experiment: Necroptosis assay in L929 cells (TNF-α, z-VAD; cell viability by ATP levels); assay type: cell-based; conditions: Mus musculus, TNF-α (40 ng/mL), z-VAD (20 μM), 48 hours
Procedure: […] Then the cells were treated with TNF-α (40 ng/mL) and z-VAD (20 μM) for 48 hours, and the viability of cells was quantified by detecting adenosine triphosphate (ATP) levels. DMSO pretreatment group was used as negative controls, Nec-1 pretreatment group was used as positive controls.

| SMILES | IC50 |
| --- | --- |
| Nc1nc2ccc(-c3cnc4c(c3)N(C(=O)OC3CCCCC3)CCO4)cc2s1 [Compound B1] | 3.6 nM |
